US20250034165A1, “COMPOUND CONTAINING CYCLOALKYL OR HALOALKYL” (CHIA TAI TIANQING PHARMACEUTICAL GROUP CO., LTD., priority 2021, published 2025)
Read-outs that look alike come from different tables or passages of the source.

Tests used:
[1] = biological target: EGFR (d746-750 (d19)/T790M) (Homo sapiens (Human), UniProt P00533, DEL746-750/T790M); assay: Inhibitory activity for EGFR (d746-750 (d19)/T790M) kinase; assay type: biochemical; conditions: ATP 5 μM
Description: 1.3 Screening for Inhibitory Activity for EGFR (d746-750 (d19)/T790M) Kinase
(§1) A 50 ng/μL EGFR (d746-750/T790M, Carna) stock solution was diluted with a kinase buffer (50 mM HEPES, 10 mM MgCl2, 2 mM DTT, 1 mM EGTA, 0.01% Tween 20), and 6 μL of 1.67× working solution at 0.005 ng/μL (final concentration: 0.003 ng/μL) was added to each well. Different compounds dissolved in DMSO were added to the wells using a nanoliter pipettor, resulting in the final concentrations of the compounds of 10 nM to 0.0024 nM (4-fold gradient for 7 concentrations in total), and blank control wells (without enzyme) and negative control wells (with enzyme, plus vehicle DMSO) were set, 2 replicate wells for each concentration. After enzyme was reacted with the compound or vehicle for 30 min, 5×ATP at 25 μM (final concentration: 5 μM, Sigma) prepared with a kinase buffer was mixed with 5× substrate at 0.5 μM (final concentration: 0.1 μM, ULight-poly GT, PerkinElmer) at a ratio of 1:1 (v:v), and the mixture was added to each well at 4 μL/well. After being sealed with a film, the plate was incubated at room temperature for 2 h, and then 5 μL of 4×EDTA at 40 mM (final concentration: 10 mM) was added to each well. After the plate was incubated for 5 min at room temperature, 5 μL of 4× detection reagent at 8 nM (final concentration: 2 nM, Eu-anti-phospho-tyrosine antibody, PerkinElmer) was added to each well. After being incubated at room temperature for 1 h, the plate was read using a PerkinElmer Envision multi-mode microplate reader (excitation: 320 nm, emission: 665 nm), and IC50 was calculated by four-parameter fitting.

[2] = test system: PC-9 EGFR-Del19-T790M-C797S cells; assay: Inhibition of proliferation of PC-9-EGFR (Del19 T790M C797S) cells, CCK-8; assay type: cell-based; conditions: 72 h, read-out: PC-9-EGFR (Del19 T790M C797S) cell inhibitory activity IC50
Description: PC-9 EGFR-Del19-T790M-C797S cells in the logarithmic growth phase and good conditions were taken, washed with PBS, digested with pancreatin, terminated with a complete medium, collected and added to a centrifuge tube, adjusted to a cell density of 2×10^4 cells/mL, and seeded in a 96-well plate (100 μL/well). Meanwhile, compounds were loaded using a nanoliter pipettor resulting in the final concentrations of the compounds of 1000 nM-0.06 nM, and a control was set, replicate wells for each concentration. After 72 h of incubation in the cell incubator, the assay reagent CCK-8 (manufacturer: Dojindo Laboratories, Beijing; 10 μL/well) was added. After 2 h of incubation in the cell incubator, absorbance was measured at 450 nm on a PerkinElmer Envision microplate reader, and the inhibition rate was calculated.
(§2) Inhibition rate (%)=(mean value of negative control group-mean value of experimental group)/(mean value of negative control group−mean value of blank group)×100%.
(§3) A dose-response curve was fitted by four-parameter analysis, with the logarithm of compound concentration serving as abscissa and inhibition rate serving as ordinate, such that IC50 was calculated.

[3] = In vivo pharmacokinetics in ICR mice; conditions: for AUC(0-inf) / AUC(0-t) / MRT last / half-life / bioavailability / Cmax / Tmax: mouse, plasma; for AUC(0-t): read-out: AUC(0-t); for MRT last: read-out: MRT(0-t); for half-life: read-out: T½ (converted); for bioavailability: 10 mg/kg, PO vs IV; for Cmax: read-out: Cmax; for Tmax: read-out: Tmax
Description: The animals to be tested (ICR mice) were fasted for 12 h before administration and food was provided 4 h after administration, and water was freely drunk before and after the experiment and during the experiment.
After intragastric administration, about 0.1 mL of blood was collected from the orbit at 0 min, 15 min, 30 min, 1 h, 2 h, 4 h, 6 h, 8 h, 10 h, and 24 h. After anticoagulation with EDTA-K2, blood samples were transferred to a centrifuge within 30 min, and centrifuged at 4000 rpm for 10 min at 4° C. to separate the plasma. All the plasma samples were collected and immediately stored at −20° C. for testing.
300 μL of acetonitrile solution containing an internal standard ([…] diazepam) was added to 20 μL of the plasma sample to be tested and a standard curve sample. The mixture was shaken and homogeneously mixed for 5 min, and centrifuged at 12,000 rpm for 10 min. 70 μL of supernatant was taken and diluted with 70 μL of ultrapure water. After being mixed well, 2 μL of the resulting sample was subjected to LC/MS/MS, and a chromatogram was recorded.

[4] = biological target: EGFR (d746-750/T790M/C797S) (Homo sapiens (Human), UniProt P00533, C797S/DEL746-750/T790M); assay: Inhibitory activity for EGFR (d746-750/T790M/C797S) kinase; assay type: biochemical; conditions: ATP 5 μM; read-out: EGFR(d19/T790M/C797S) (IC50)
Sequence of EGFR (d746-750/T790M/C797S) (P00533 other isoform, or with tags, fused parts or gaps T790M/C797S/del 1-694/del 746-750 limits assumed): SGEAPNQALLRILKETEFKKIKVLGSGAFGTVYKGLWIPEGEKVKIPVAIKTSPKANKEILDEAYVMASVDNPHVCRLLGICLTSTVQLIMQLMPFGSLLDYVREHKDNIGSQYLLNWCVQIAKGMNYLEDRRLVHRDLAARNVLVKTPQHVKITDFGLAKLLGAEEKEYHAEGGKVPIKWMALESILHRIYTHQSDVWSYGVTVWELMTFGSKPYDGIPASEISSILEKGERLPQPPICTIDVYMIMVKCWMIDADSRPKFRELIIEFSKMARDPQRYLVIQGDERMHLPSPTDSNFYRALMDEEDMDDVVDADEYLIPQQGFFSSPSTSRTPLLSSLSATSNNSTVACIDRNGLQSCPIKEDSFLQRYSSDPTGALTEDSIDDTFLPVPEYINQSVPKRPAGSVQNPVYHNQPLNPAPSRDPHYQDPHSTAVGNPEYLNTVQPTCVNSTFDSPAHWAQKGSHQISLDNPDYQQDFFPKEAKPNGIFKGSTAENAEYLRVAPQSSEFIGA
Description: 1.5 Screening for Inhibitory Activity for EGFR (d746-750/T790M/C797S) Kinase
as §1, with “(d746-750/T790M/C797S, BPS)” for “(d746-750/T790M, Carna)”, “0.05” for “0.005”, “0.03” for “0.003”

[5] = test system: BAF3-EGFR (L858R/T790M/C797S) cells; assay: Inhibition of proliferation of BAF3-EGFR (L858R/T790M/C797S) cells, CCK-8; assay type: cell-based; conditions: Ba/F3 EGFR, 72 h, read-out: BAF3(EGFR T790M L858R C797S) cell inhibitory activity IC50
Description: (§4) A flask of EGFR (L858R/T790M/C797S) cells in the logarithmic growth phase and good conditions was taken, and the cells were collected and added to a centrifuge tube. 20 μL of cells were taken and counted, and the required number of cells (mL) was pipetted and centrifuged at 1200 rpm for 3 min. The supernatant was discarded, and an appropriate amount of plating medium (RPMI medium+10% FBS) was added to adjust the cell density to 1.5×10^5 cells/mL. The cells were seeded on a 96-well plate at 100 μL/well using a multi-channel pipette and cultured in a cell incubator at 37° C., 5% CO2 with saturated humidity. After overnight incubation, compounds were loaded using a nanoliter pipettor, 2 duplicate wells were set for each concentration, and cells without compound added were used as negative controls.
as §2, §3

[6] = test system: BAF3-EGFR (del19/T790M/C797S) cells; assay: Inhibition of proliferation of BAF3-EGFR (Del19/T790M/C797S) cells, CCK-8; assay type: cell-based; conditions: Ba/F3 EGFR-Del19/T790M/C797S, 72 h, read-out: BAF3(EGFR T790M Del19 C797S) cell inhibitory activity IC50
Description: as §4, with “BAF3-EGFR (del19/T790M/C797S)” for “EGFR (L858R/T790M/C797S)”, “1.0×10^5” for “1.5×10^5”
as §2, §3

Sequence of EGFR (d746-750 (d19)/T790M) (P00533 other isoform, or with tags, fused parts or gaps T790M/del 1-668/del 746-750 limits assumed): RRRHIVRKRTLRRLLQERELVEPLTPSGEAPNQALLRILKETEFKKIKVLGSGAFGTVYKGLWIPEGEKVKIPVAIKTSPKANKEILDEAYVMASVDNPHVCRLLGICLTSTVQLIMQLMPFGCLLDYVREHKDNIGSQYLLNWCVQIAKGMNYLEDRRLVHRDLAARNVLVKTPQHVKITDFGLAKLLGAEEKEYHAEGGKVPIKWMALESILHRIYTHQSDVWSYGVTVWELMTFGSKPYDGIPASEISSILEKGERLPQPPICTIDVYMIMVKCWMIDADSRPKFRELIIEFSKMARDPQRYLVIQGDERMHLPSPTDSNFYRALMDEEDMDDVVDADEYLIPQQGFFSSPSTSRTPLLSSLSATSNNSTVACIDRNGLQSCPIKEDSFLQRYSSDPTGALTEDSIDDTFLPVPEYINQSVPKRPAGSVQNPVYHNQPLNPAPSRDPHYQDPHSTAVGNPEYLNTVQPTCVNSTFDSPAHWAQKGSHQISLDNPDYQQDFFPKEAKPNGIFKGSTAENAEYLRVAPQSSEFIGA

SMILES: Cc1cc2cc(n1)-c1cnn(C)c1OCCC[C@@H](C1CC1)CN1/C(=N/C2=O)Nc2ccc(N(C)C3CCN(C)CC3)cc21 [Example 117]
- IC50 [1]: 0.12 nM
- IC50 [2]: < 50 nM
- CLz ([3]; IV): 3.49 L/h/kg
- AUC(0-inf) ([3]; 1 mg/kg, IV): 0.286 µg·h/mL
- AUC(0-t) ([3]; 1 mg/kg, IV): 0.284 µg·h/mL
- MRT last ([3]; 1 mg/kg, IV): 3.3 h
- half-life ([3]; 1 mg/kg, IV): 2.18 h
- bioavailability [3]: 29.1%
- AUC(0-inf) ([3]; PO, 10 mg/kg intragastric): 0.848 µg·h/mL
- AUC(0-t) ([3]; PO, 10 mg/kg intragastric): 0.826 µg·h/mL
- Cmax ([3]; PO, 10 mg/kg intragastric): 0.0771 µg/mL
- MRT last ([3]; PO, 10 mg/kg intragastric): 6.79 h
- Tmax ([3]; PO, 10 mg/kg intragastric): 6 h
- half-life ([3]; PO, 10 mg/kg intragastric): 4.17 h

SMILES: Cc1cc2cc(n1)-c1cnn(C)c1OCCC[C@@H](C1CC1)CN1/C(=N/C2=O)Nc2cc(N[C@H]3CC[C@H](O)CC3)ccc21 [Example 151]
- IC50 [4]: 0.12 nM
- IC50 [5]: < 5 nM
- IC50 [2]: < 50 nM

SMILES: Cc1cc2cc(n1)-c1cnn(C)c1OCCC[C@@H](C1CC1)CN1/C(=N/C2=O)Nc2cc(N[C@H](C)CCN3CCCCC3)ccc21 [Example 139]
- IC50 [4]: 0.076 nM
- IC50 [5]: < 5 nM
- IC50 [2]: < 50 nM

SMILES: [2H]C([2H])([2H])N(C[C@@H](C)Nc1ccc2c(c1)N/C1=N\C(=O)c3cc(C)nc(c3)-c3cnn(C)c3OCCC[C@@H](C3CC3)CN12)C([2H])([2H])[2H] [Example 146]
- IC50 [4]: 0.074 nM
- IC50 [5]: < 5 nM
- IC50 [2]: < 50 nM

SMILES: Cc1cc2cc(n1)-c1cnn(C)c1OCCC[C@@H](C1CC1)CN1/C(=N/C2=O)Nc2ccc(NC3CC(N(C)C)C3)cc21 (stereo partly drawn) [Example 98]
- IC50 [1]: 0.087 nM
- IC50 [5]: < 5 nM
- IC50 [2]: < 50 nM

SMILES: CCC1(CNc2ccc3c(c2)N/C2=N\C(=O)c4cc(C)nc(c4)-c4cnn(C)c4OCCC[C@@H](C4CC4)CN23)COC1 [Example 92]
- IC50 [5]: < 5 nM
- IC50 [6]: < 1 nM

SMILES: [2H]C([2H])([2H])N(C[C@H](C)Nc1ccc2c(c1)N1C[C@H](C3CC3)CCCOc3c(cnn3C)-c3cc(cc(C)n3)C(=O)/N=C/1N2)C([2H])([2H])[2H] [Example 123]
- IC50 [4]: 0.1 nM
- IC50 [5]: < 5 nM
- IC50 [2]: < 50 nM

SMILES: Cc1cc2cc(n1)-c1cnn(C)c1OCCC[C@@H](C1CC1)CN1/C(=N/C2=O)Nc2ccc(N[C@H](C)CCN3CCCCC3)cc21 [Example 143]
- IC50 [4]: 0.079 nM
- IC50 [5]: < 5 nM
- IC50 [2]: < 50 nM

SMILES: Cc1cc2cc(n1)-c1cnn(C)c1OCCC[C@@H](C1CC1)CN1/C(=N/C2=O)Nc2ccc(N(C)[C@@H](C)CN(C)C)cc21 [Example 85]
- IC50 [2]: < 50 nM

SMILES: Cc1cc2cc(n1)-c1cnn(C)c1OCCC[C@@H](C1CC1)CN1/C(=N/C2=O)Nc2ccc(N[C@@H](C)CCN3CCCCC3)cc21 [Example 144]
- IC50 [4]: 0.068 nM
- IC50 [5]: < 5 nM
- IC50 [2]: < 50 nM

SMILES: Cc1cc2cc(n1)-c1cnn(C)c1OCCC[C@@H](C1CC1)CN1/C(=N/C2=O)Nc2ccc(N[C@H]3CC[C@H](N(C)C)C3)cc21 [Example 136]
- IC50 [1]: 0.15 nM
- IC50 [2]: < 50 nM

SMILES: Cc1cc2cc(n1)-c1cnn(C)c1OCCC[C@@H](C1CC1)CN1/C(=N/C2=O)Nc2ccc(N[C@H](C)CN3CCCCC3)cc21 [Example 141]
- IC50 [4]: 0.072 nM
- IC50 [5]: < 5 nM
- IC50 [2]: < 50 nM

SMILES: Cc1cc2cc(n1)-c1cnn(C)c1OCCC[C@@H](C1CC1)CN1/C(=N/C2=O)Nc2ccc(N[C@H](C)CN(C)C)cc21 [Example 65]
- IC50 [5]: < 5 nM
- IC50 [6]: < 1 nM

SMILES: [2H]C([2H])([2H])N(CCN(C)C)c1ccc2c(c1)N1C[C@H](C3CC3)CCCOc3c(cnn3C)-c3cc(cc(C)n3)C(=O)/N=C/1N2 [Example 116]
- IC50 [2]: < 50 nM

SMILES: Cc1cc2cc(n1)-c1cnn(C)c1OCCC[C@@H](C1CC1)CN1/C(=N/C2=O)Nc2ccc(N[C@H]3C[C@H](N(C)C)C3)cc21 [Example 128]
- IC50 [1]: 0.13 nM
- IC50 [2]: < 50 nM
- CLz ([3]; IV): 4.52 L/h/kg
- AUC(0-inf) ([3]; 1 mg/kg, IV): 0.221 µg·h/mL
- AUC(0-t) ([3]; 1 mg/kg, IV): 0.214 µg·h/mL
- MRT last ([3]; 1 mg/kg, IV): 1.65 h
- half-life ([3]; 1 mg/kg, IV): 2.17 h
- bioavailability [3]: 30.5%
- AUC(0-inf) ([3]; PO, 10 mg/kg intragastric): 0.662 µg·h/mL
- AUC(0-t) ([3]; PO, 10 mg/kg intragastric): 0.654 µg·h/mL
- Cmax ([3]; PO, 10 mg/kg intragastric): 0.0578 µg/mL
- MRT last ([3]; PO, 10 mg/kg intragastric): 6.81 h
- Tmax ([3]; PO, 10 mg/kg intragastric): 6 h
- half-life ([3]; PO, 10 mg/kg intragastric): 3.46 h
